Reference: ChEMBL document CHEMBL1121904, “Potential antitumor agents. 35. Quantitative relationships between antitumor (L1210) potency and DNA binding for 4'-(9-acridinylamino)methanesulfon-m-anisidide analogues” (J Med Chem, 1981)

How the values were obtained:
Calf thymus DNA = details: Bos taurus
Description: Association constant measured for binding towards poly[d(A-T)] of DNA in calf thymus

Description for physchem: Ionisation constant (pKa)

## COc1cc(NS(C)(=O)=O)ccc1Nc1c2ccccc2nc2c(OCCO)cccc12
Calf thymus DNA
  Log K: 5.74
physchem
  pKa: 7.36

## COc1cc(NS(C)(=O)=O)ccc1Nc1c2ccccc2nc2c(C(=O)NCC(N)=O)cccc12
Calf thymus DNA
  Log K: 5.39

## COc1cc(NS(C)(=O)=O)ccc1Nc1c2ccccc2nc2c(C)cccc12
Calf thymus DNA
  Log K: 6.03
physchem
  pKa: 7.39

## COC(=O)Nc1ccc2c(Nc3ccc(NS(C)(=O)=O)cc3OC)c3ccccc3nc2c1
Calf thymus DNA
  Log K: 6.37
physchem
  pKa: 7.77

## COc1cc(NS(C)(=O)=O)ccc1Nc1c2ccccc2nc2cc(C#N)ccc12
Calf thymus DNA
  Log K: 5.65
physchem
  pKa: 5.94

## COc1cc(NS(C)(=O)=O)ccc1Nc1c2ccccc2nc2ccc(C(C)C)cc12
Calf thymus DNA
  Log K: 5.39
physchem
  pKa: 7.4

## C=NC(=O)CCc1cccc2c(Nc3ccc(NS(C)(=O)=O)cc3OC)c3ccccc3nc12
Calf thymus DNA
  Log K: 5.65
physchem
  pKa: 7.15

## COc1cc(NS(C)(=O)=O)ccc1Nc1c2ccccc2nc2cc(Br)ccc12
Calf thymus DNA
  Log K: 6.29
physchem
  pKa: 6.84

## COc1cc(NS(C)(=O)=O)ccc1Nc1c2ccccc2nc2c(F)cccc12
Calf thymus DNA
  Log K: 5.65
physchem
  pKa: 6.33

## COc1cc(NS(C)(=O)=O)ccc1Nc1c2ccccc2nc2c(C(=O)NCC(O)CO)cccc12 (stereo not given)
Calf thymus DNA
  Log K: 5.26

## COc1cc(NS(C)(=O)=O)ccc1Nc1c2ccccc2nc2c(OCC(O)CO)cccc12 (stereo not given)
Calf thymus DNA
  Log K: 5.9
physchem
  pKa: 7.3

## COc1cc(NS(C)(=O)=O)ccc1Nc1c2ccccc2nc2ncccc12
Calf thymus DNA
  Log K: 5.27

## COc1cc(NS(C)(=O)=O)ccc1Nc1c2ccccc2nc2cc(C(N)=O)ccc12
Calf thymus DNA
  Log K: 5.66
physchem
  pKa: 6.66

## COc1cc(NS(C)(=O)=O)ccc1Nc1c2ccccc2nc2cc(NC(C)=O)ccc12
Calf thymus DNA
  Log K: 6.24

## COc1cc(NS(C)(=O)=O)ccc1Nc1c2ccccc2nc2cc(C)ccc12
Calf thymus DNA
  Log K: 5.95
physchem
  pKa: 7.7

## CCCCNC(=O)c1cccc2c(Nc3ccc(NS(C)(=O)=O)cc3OC)c3ccccc3nc12
Calf thymus DNA
  Log K: 5.4

## COc1cc(NS(C)(=O)=O)ccc1Nc1c2ccccc2nc2c(C(=O)NCC(C)O)cccc12 (stereo not given)
Calf thymus DNA
  Log K: 5.34
physchem
  pKa: 6.2

## COc1cc(NS(C)(=O)=O)ccc1Nc1c2ccccc2nc2cc(N)ccc12
Calf thymus DNA
  Log K: 6.21
physchem
  pKa: 9.92

## COc1cc(NS(C)(=O)=O)ccc1Nc1c2ccccc2nc2cc(F)ccc12
Calf thymus DNA
  Log K: 5.54
physchem
  pKa: 7.05

## CCc1ccc2c(Nc3ccc(NS(C)(=O)=O)cc3OC)c3ccccc3nc2c1
Calf thymus DNA
  Log K: 5.66
physchem
  pKa: 7.65

## COc1cc(NS(C)(=O)=O)ccc1Nc1c2ccccc2nc2cc(C(C)C)ccc12
Calf thymus DNA
  Log K: 5.46
physchem
  pKa: 7.66

## COc1cc(NS(C)(=O)=O)ccc1Nc1c2ccccc2nc2ccc(N)cc12
Calf thymus DNA
  Log K: 5.95
physchem
  pKa: 7.37

## COc1cc(NS(C)(=O)=O)ccc1Nc1c2ccccc2nc2c(C(N)=O)cccc12
Calf thymus DNA
  Log K: 5.47

## COc1cc(NS(C)(=O)=O)ccc1Nc1c2ccccc2nc2c(C(=O)NCCCO)cccc12
Calf thymus DNA
  Log K: 5.4
physchem
  pKa: 6.3

## COc1cc(NS(C)(=O)=O)ccc1Nc1c2ccccc2nc2cc(C(F)(F)F)ccc12
Calf thymus DNA
  Log K: 5.24
physchem
  pKa: 6.24

## COc1cc(NS(C)(=O)=O)ccc1Nc1c2ccccc2nc2ccc(C)cc12
Calf thymus DNA
  Log K: 5.35
physchem
  pKa: 7.45

## COc1cc(NS(C)(=O)=O)ccc1Nc1c2ccccc2nc2c(Br)cccc12
Calf thymus DNA
  Log K: 5.57
physchem
  pKa: 6.09

## COc1cc(NS(C)(=O)=O)ccc1Nc1c2ccccc2nc2cc(Cl)ccc12
Calf thymus DNA
  Log K: 6.06
physchem
  pKa: 6.84

## COc1cc(NS(C)(=O)=O)ccc1Nc1c2ccccc2nc2c(C(=O)NCCO)cccc12
Calf thymus DNA
  Log K: 5.42
physchem
  pKa: 6.27

## COc1cc(NS(C)(=O)=O)ccc1Nc1c2ccccc2nc2c(C(=O)N3CCOCC3)cccc12
Calf thymus DNA
  Log K: 4.96
physchem
  pKa: 6.03

## COc1cc(NS(C)(=O)=O)ccc1Nc1c2ccccc2nc2c(C(=O)N(C)C)cccc12
Calf thymus DNA
  Log K: 5.04

## CNc1ccc2c(Nc3ccc(NS(C)(=O)=O)cc3OC)c3ccccc3nc2c1
Calf thymus DNA
  Log K: 6.17
physchem
  pKa: 10.1

## COc1cc(NS(C)(=O)=O)ccc1Nc1c2ccccc2nc2cnccc12
Calf thymus DNA
  Log K: 5.09
physchem
  pKa: 5.53

## CNC(=O)COc1cccc2c(Nc3ccc(NS(C)(=O)=O)cc3OC)c3ccccc3nc12
Calf thymus DNA
  Log K: 5.8
physchem
  pKa: 7.35

## COc1cc(NS(C)(=O)=O)ccc1Nc1c2ccccc2nc2ccc(F)cc12
Calf thymus DNA
  Log K: 5.28
physchem
  pKa: 6.71

## COc1cc(NS(C)(=O)=O)ccc1Nc1c2ccccc2nc2c(OC)cccc12
Calf thymus DNA
  Log K: 5.94
physchem
  pKa: 7.39

## CNC(=O)c1cccc2c(Nc3ccc(NS(C)(=O)=O)cc3OC)c3ccccc3nc12
Calf thymus DNA
  Log K: 5.54

## COc1cc(NS(C)(=O)=O)ccc1Nc1c2ccccc2nc2cc([N+](=O)[O-])ccc12
Calf thymus DNA
  Log K: 5.65

## CCOc1cccc2c(Nc3ccc(NS(C)(=O)=O)cc3OC)c3ccccc3nc12
Calf thymus DNA
  Log K: 5.77
physchem
  pKa: 7.37

## COc1cc(NS(C)(=O)=O)ccc1Nc1c2ccccc2nc2c([N+](=O)[O-])cccc12
Calf thymus DNA
  Log K: 5.2
physchem
  pKa: 5.05

## COc1cc(NS(C)(=O)=O)ccc1Nc1c2ccccc2nc2c(-c3ccccc3)cccc12
Calf thymus DNA
  Log K: 5.6
physchem
  pKa: 7.02

## COc1cc(NS(C)(=O)=O)ccc1Nc1c2ccccc2nc2cc(I)ccc12
Calf thymus DNA
  Log K: 6.35
physchem
  pKa: 6.77

## COc1cc(NS(C)(=O)=O)ccc1Nc1c2ccccc2nc2c(Cl)cccc12
Calf thymus DNA
  Log K: 5.76
physchem
  pKa: 6.11

## COc1ccc2c(Nc3ccc(NS(C)(=O)=O)cc3OC)c3ccccc3nc2c1
Calf thymus DNA
  Log K: 5.83
physchem
  pKa: 7.81

## COc1cc(NS(C)(=O)=O)ccc1Nc1c2ccccc2nc2c(C#N)cccc12
Calf thymus DNA
  Log K: 5.01
physchem
  pKa: 4.87

## COc1cc(NS(C)(=O)=O)ccc1Nc1c2ccccc2nc2ccc(I)cc12
Calf thymus DNA
  Log K: 5.7
physchem
  pKa: 6.6

## COc1cc(NS(C)(=O)=O)ccc1Nc1c2ccccc2nc2c(OCCCC(N)=O)cccc12
Calf thymus DNA
  Log K: 5.74
physchem
  pKa: 7.36
